In paper PMC6010143, “Synthesis of new pyridothienopyrimidinone derivatives as Pim-1 inhibitors” (Journal of Enzyme Inhibition and Medicinal Chemistry, 2017):
Like-named read-outs stand apart in the source and are kept apart here. Each block holds one compound with its values, some of them ahead of it.

Tests used:
pim-1 = conditions: cited from earlier work
pim-2 = conditions: cited from earlier work
pim-1 kinase = biological target: T1, pim-1 kinase (Homo sapiens, UniProt P11309); test: Pim-1 kinase radioisotope (33P-ATP) assay, Kinexus compound profiling service; format: biochemical; conditions: for pim-1 inhibition, in words: at 50 μM
T1 construct: The kinase used was cloned, expressed and purified using proprietary methods
T1 sequence (P11309 whole entry): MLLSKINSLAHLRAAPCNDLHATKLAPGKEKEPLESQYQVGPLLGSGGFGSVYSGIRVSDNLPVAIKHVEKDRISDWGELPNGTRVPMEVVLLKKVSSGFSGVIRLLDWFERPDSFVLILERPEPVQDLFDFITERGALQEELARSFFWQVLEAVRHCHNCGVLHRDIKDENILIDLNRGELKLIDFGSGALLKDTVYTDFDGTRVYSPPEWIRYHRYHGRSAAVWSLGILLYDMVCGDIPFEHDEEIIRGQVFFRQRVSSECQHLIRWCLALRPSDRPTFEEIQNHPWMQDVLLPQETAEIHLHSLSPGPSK
Protocol: The kinase inhibitory activity of the synthesized compounds was determined using the Kinexus compound profiling service, Canada. All the compounds were tested for their inhibitory activity against pim-1 kinase at 50 μM. The kinase used was cloned, expressed and purified using proprietary methods. Quality control testing is routinely performed to ensure compliance to acceptable standards. ^33P-ATP was purchased from PerkinElmer. All other materials were of standard laboratory grade.
The protein kinase target profiling was executed via employing a radioisotope assay format. All the assays were performed in a prepared radioactive working area. The protein kinase profiling assays were performed at room temperature for 20–30 min in a final volume of 25 μL according to the following assay reaction components: Component 1; 5 μl of diluted active protein kinase (∼10–50 nM final concentration in the assay). Component 2; 5 μl of stock solution of substrate. Component 3; 5 μl of kinase assay buffer. Component 4; 5 μl of the test compound, Staurosporine at 1 μM or 10% DMSO.
The assay was initiated by the addition of ^33P-ATP, followed by incubation at ambient temperature for 30 min. The assay was then terminated by spotting 10 μL of the reaction mixture onto a Multiscreen phosphocellulose P81 plate. The Multiscreen phosphocellulose P81 plate was washed three times for approximately 15 min each in a 1% phosphoric acid solution. The radioactivity on the P81 plate was counted in the presence of scintillation fluid in a Trilux scintillation counter. Blank control was set up that included all the assay components except the addition of the appropriate substrate (replaced with equal volume of assay dilution buffer). The corrected activity for protein kinase target was determined by removing the blank control value.

[1] = system: human prostate cancer cells (PC3); test: MTT cytotoxicity assay, PC3; format: cell-based; conditions: for IC50: 72 h exposure, means of three experiments
Protocol: (§1) Cancer cells from different cancer cell lines were purchased from American type Cell Culture collection (ATCC, Manassas, VA). The cell lines used in this study were human breast adenocarcinoma (MCF7), human colon adenocarcinoma (HCT116) and human prostate cancer cells (PC3). The cell lines were grown on the appropriate growth medium Dulbecco's modified Eagle's medium (DMEM) or Roswell Park Memorial Institute medium (RPMI 1640) supplemented with […] of streptomycin, 100 units/mL of penicillin and 10% of heat-inactivated fetal bovine serum in a humidified, 5% (v/v) CO2 atmosphere at 37 °C.
(§2) Exponentially growing cells from different cancer cell lines were trypsinized, counted and seeded at the appropriate densities (2000–10 000 cells/0.33 cm^2 well) into 96-well microtiter plates. The cells were incubated in a humidified atmosphere at 37°C for 24 h. Then, the cells were exposed to different concentrations of compounds 6c, 7a, 7c, 7d, 8b and 9 (0.1, 10, 100 and 1000 μM) for 72 h. The viability of the treated cells was determined using MTT technique. The media were removed; cells were incubated with 200 μL of 5% MTT solution/well (Sigma Aldrich, St. Louis, MO) and were allowed to metabolize the dye into colored-insoluble formazan crystals for 2 h. The remaining MTT solution was discarded from the wells and the formazan crystals were dissolved in 200 μL/well-acidified isopropanol for 30 min, covered with aluminum foil and with continuous shaking using a MaxQ 2000 plate shaker (Thermo Fisher Scientific Inc, MI) at room temperature. The absorbance was measured at 570 nm using a Stat FaxR 4200 plate reader (Awareness Technology, Inc., Palm City, FL). […] The results are shown in Table 2 and represented graphically in Figure 5.

[2] = system: human breast adenocarcinoma (MCF7); test: MTT cytotoxicity assay, MCF7; format: cell-based; conditions: for IC50: 72 h exposure, means of three experiments
Protocol: as §1, §2

[3] = system: human colon adenocarcinoma (HCT116); test: MTT cytotoxicity assay, HCT116; format: cell-based; conditions: for IC50: 72 h exposure, means of three experiments
Protocol: as §1, §2

pim-3 = conditions: cited from earlier work

SMILES: O=C(O)c1ccc2c(c1)nc(Nc1cccc(Cl)c1)c1ccncc12 [CX-4595]
IC50 (pim-1; Figure 1): 0.048 µM
IC50 (pim-2; Figure 1): 0.186 µM

SMILES: Cc1nc2sc(C(N)=O)c(N)c2c(C)c1Br [Compound 4, 3-Amino-5-bromo-4,6-dimethylthieno[2,3-b]pyridine-2-carboxamide]
melting point: 260 to 261 °C
inhibition at 50 µM (pim-1 kinase; test compounds at 50 μM): 16%

SMILES: Cc1nc2sc3c(=O)[nH]cnc3c2c(C)c1Br [Compound 5, 8-bromo-7,9-dimethylpyrido[3′,2′:4,5]thieno[3,2-d]pyrimidin-4(3H)-one]
inhibition at 50 µM (pim-1 kinase; test compounds at 50 μM): 37%

SMILES: Cc1nc2sc3c(=O)[nH]c(-c4ccccc4Cl)nc3c2c(C)c1Br [Compound 6a, 8-Bromo-2-(2-chlorophenyl)-7,9-dimethylpyrido[3',2':4,5]thieno[3,2-d]pyrimidin-4(3H)-one]
melting point: > 300 °C
IC50 (pim-1 kinase): > 100 µM
inhibition at 50 µM (pim-1 kinase; test compounds at 50 μM): 36%

SMILES: Cc1nc2sc3c(=O)[nH]c(-c4ccccc4F)nc3c2c(C)c1Br [Compound 6b, 8-Bromo-2-(2-fluorophenyl)-7,9-dimethylpyrido[3',2':4,5]thieno[3,2-d]pyrimidin-4(3H)-one]
melting point: 295 to 296 °C
pim-1 inhibition, in words (pim-1 kinase): moderate
inhibition at 50 µM (pim-1 kinase; test compounds at 50 μM): 61%

SMILES: NC1CCN(c2ccncc2NC(=O)c2ccc(F)c(-c3c(F)cccc3F)n2)CC1O (stereo not shown) [LGB321]
Ki (pim-1; Figure 1): 0.001 nM
Ki (pim-2; Figure 1): 0.0021 nM

SMILES: CC(C)(O)[C@H]1CC[C@H](Nc2ccc3ncc(-c4cccc(C(F)(F)F)c4)n3n2)CC1 [SGI-9481]
Ki (pim-3; Figure 1): 0.042 µM
Ki (pim-1; Figure 1): 5 nM
Ki (pim-2; Figure 1): 239 nM

SMILES: CN[C@@H]1C[C@H]2O[C@@](C)([C@@H]1OC)n1c3ccccc3c3c4c(c5c6ccccc6n2c5c31)C(=O)NC4 [Staurosporine, reference compound]
inhibition at 1 µM (pim-1 kinase; read-out: % Inhibition of pim-1 kinase): 93%

SMILES: O=c1[nH]c(CNc2cccc(O)c2)nc2c1sc1ccc(Br)cc12 [VII]
Ki (pim-3; Figure 3): 0.004 µM
Ki (pim-1; Figure 3): 0.8 nM
Ki (pim-2; Figure 3): 60 nM

SMILES: CN(C)Cc1nc2c(sc3ccc(-c4ccc(O)cc4)cc32)c(=O)[nH]1 [VI]
Ki (pim-3; Figure 3): 0.0005 µM
Ki (pim-1; Figure 3): 2 nM
Ki (pim-2; Figure 3): 3 nM

SMILES: COc1ccc(N2CCN(C(=O)c3sc4nc(C)c(Br)c(C)c4c3N)CC2)cc1 [V]
IC50 (pim-1; Figure 2, earlier thieno[2,3-b]pyridine): 12.7 µM

More lines, main results first:

IC50 (pim-1 kinase): 4.62 ± 0.039 µM
inhibition at 50 µM (pim-1 kinase; test compounds at 50 μM): 85%
SMILES: Cc1nc2sc3c(=O)[nH]c(-c4ccccc4O)nc3c2c(C)c1Br [Compound 6c, 8-Bromo-2-(2-hydroxyphenyl)-7,9-dimethylpyrido[3',2':4,5]thieno[3,2-d]pyrimidin-4(3H)-one]
cytotoxic activity on PC3, in words [1]: moderate
IC50 ([1]; Homo sapiens, 72 h): 60.1 ± 4.65 µM
cytotoxic activity on MCF7, in words [2]: moderate
IC50 ([2]; Homo sapiens, MCF7, 72 h): 35.5 ± 1.3 µM
cytotoxic activity on HCT116, in words [3]: moderate
IC50 ([3]; Homo sapiens, HCT-116, 72 h): 63.3 ± 4.5 µM

melting point: 255 to 256 °C
pim-1 inhibition, in words (pim-1 kinase): moderate
inhibition at 50 µM (pim-1 kinase; test compounds at 50 μM): 54%
SMILES: Cc1nc2sc3c(=O)[nH]c(-c4ccccc4C(F)(F)F)nc3c2c(C)c1Br [Compound 6d, 8-Bromo-7,9-dimethyl-2-[2-(trifluoromethyl)phenyl]pyrido[3',2':4,5]thieno[3,2-d]pyrimidin-4(3H)-one]

IC50 (pim-1 kinase): 1.18 ± 0.14 µM
inhibition at 50 µM (pim-1 kinase; test compounds at 50 μM): 81%
SMILES: Cc1nc2sc3c(c2c(C)c1Br)NC(c1ccccc1Cl)NC3=O (stereo not shown) [Compound 7a, 8-Bromo-2-(2-chlorophenyl)-7,9-dimethyl-2,3-dihydropyrido[3',2':4,5]thieno[3,2-d]pyrimidin-4(1H)-one]
IC50 [1]: 24.2 ± 0.91 µM
IC50 ([1]; Homo sapiens, 72 h): 18 to 38 µM
IC50 [2]: 23.8 ± 0.4 µM
IC50 ([2]; Homo sapiens, MCF7, 72 h): 18 to 38 µM
IC50 [3]: 18.3 ± 0.68 µM
IC50 ([3]; Homo sapiens, HCT-116, 72 h): 18 to 38 µM

melting point: 292 to 293 °C
pim-1 inhibition, in words (pim-1 kinase): moderate
inhibition at 50 µM (pim-1 kinase; test compounds at 50 μM): 66%
SMILES: Cc1nc2sc3c(c2c(C)c1Br)NC(c1ccccc1F)NC3=O (stereo not shown) [Compound 7b, 8-Bromo-2-(2-fluorophenyl)-7,9-dimethyl-2,3-dihydropyrido[3',2':4,5]thieno[3,2-d]pyrimidin-4(1H)-one]

IC50 (pim-1 kinase): 1.38 ± 0.025 µM
inhibition at 50 µM (pim-1 kinase; test compounds at 50 μM): 93%
SMILES: Cc1nc2sc3c(c2c(C)c1Br)NC(c1ccccc1O)NC3=O (stereo not shown) [Compound 7c, 8-Bromo-2-(2-hydroxyphenyl)-7,9-dimethyl-2,3-dihydropyrido[3',2':4,5]thieno[3,2-d]pyrimidin-4(1H)-one]
cytotoxic activity on PC3, in words [1]: moderate
IC50 ([1]; Homo sapiens, 72 h): 58.2 ± 3.48 µM
cytotoxic activity on MCF7, in words [2]: moderate
IC50 ([2]; Homo sapiens, MCF7, 72 h): 59.6 ± 1.2 µM
cytotoxic activity on HCT116, in words [3]: moderate
IC50 ([3]; Homo sapiens, HCT-116, 72 h): 181 ± 5.03 µM

IC50 (pim-1 kinase): 1.97 ± 0.022 µM
inhibition at 50 µM (pim-1 kinase; test compounds at 50 μM): 98%
SMILES: Cc1nc2sc3c(c2c(C)c1Br)NC(c1ccccc1C(F)(F)F)NC3=O (stereo not shown) [Compound 7d, 8-Bromo-7,9-dimethyl-2-[2-(trifluoromethyl)phenyl]-2,3-dihydropyrido[3',2':4,5]thieno[3,2-d]pyrimidin-4(1H)-one]
IC50 [2]: 30.2 ± 0.8 µM
IC50 ([2]; Homo sapiens, MCF7, 72 h): 18 to 38 µM
IC50 [3]: 30 ± 0.55 µM
IC50 ([3]; Homo sapiens, HCT-116, 72 h): 18 to 38 µM

melting point: > 300 °C
pim-1 inhibition, in words (pim-1 kinase): moderate
inhibition at 50 µM (pim-1 kinase; test compounds at 50 μM): 51%
SMILES: Cc1nc2c(sc3nc(C)c(Br)c(C)c32)c(=O)[nH]1 [Compound 8a, 8-Bromo-2,7,9-trimethylpyrido[3',2':4,5]thieno[3,2–d]pyrimidin-4(3H)-one]

IC50 (pim-1 kinase): 8.83 ± 0.028 µM
inhibition at 50 µM (pim-1 kinase; test compounds at 50 μM): 96%
SMILES: Cc1nc2sc3c(=O)[nH]c(C(F)(F)F)nc3c2c(C)c1Br [Compound 8b, 8-Bromo-7,9-dimethyl-2-(trifluoromethyl)pyrido[3',2':4,5]thieno[3,2-d]pyrimidin-4(3H)-one]
cytotoxic activity on PC3, in words [1]: moderate
IC50 ([1]; Homo sapiens, 72 h): 59.9 ± 2.48 µM
cytotoxic activity on MCF7, in words [2]: potent
IC50 ([2]; Homo sapiens, MCF7, 72 h): 28.6 ± 1 µM
cytotoxic activity on HCT116, in words [3]: potent
IC50 ([3]; Homo sapiens, HCT-116, 72 h): 23.5 ± 0.53 µM

melting point: > 300 °C
inhibition at 50 µM (pim-1 kinase; test compounds at 50 μM): 23%
% Inhibition of pim-1 kinase (pim-1 kinase; test compounds at 50 μM, 50 µM): 17%
SMILES: CCc1nc2c(sc3nc(C)c(Br)c(C)c32)c(=O)[nH]1 [Compound 8c, 8-Bromo-2-ethyl-7,9-dimethylpyrido[3',2':4,5]thieno[3,2-d]pyrimidin-4(3H)-one]

IC50 (pim-1 kinase): 4.18 ± 0.076 µM
inhibition at 50 µM (pim-1 kinase; test compounds at 50 μM): 89%
SMILES: CC(=O)Cc1nc2c(sc3nc(C)c(Br)c(C)c32)c(=O)[nH]1 [Compound 9, 8-Bromo-7,9-dimethyl-2-(2-oxopropyl)pyrido[3',2':4,5]thieno[3,2-d]pyrimidin-4(3H)-one]
cytotoxic activity on PC3, in words [1]: weak
IC50 ([1]; Homo sapiens, 72 h): 183 ± 12.1 µM
cytotoxic activity on MCF7, in words [2]: weak
IC50 ([2]; Homo sapiens, MCF7, 72 h): 123 ± 12 µM
cytotoxic activity on HCT116, in words [3]: weak
IC50 ([3]; Homo sapiens, HCT-116, 72 h): 151 ± 4.04 µM

melting point: 277 to 278 °C
pim-1 inhibition, in words (pim-1 kinase): poor
inhibition at 50 µM (pim-1 kinase; test compounds at 50 μM): 31%
SMILES: CCOC(=O)Cc1nc2c(sc3nc(C)c(Br)c(C)c32)c(=O)[nH]1 [Compound 10, Ethyl (8-bromo-7,9-dimethyl-4-oxo-3,4-dihydropyrido[3',2':4,5]thieno[3,2-d]pyrimidin-2-yl)acetate]

melting point: > 300 °C
pim-1 inhibition, in words (pim-1 kinase): poor
inhibition at 50 µM (pim-1 kinase; test compounds at 50 μM): 19%
SMILES: Cc1nc2sc3c(=O)[nH]c(CC(=O)O)nc3c2c(C)c1Br [Compound 11, (8-Bromo-7,9-dimethyl-4-oxo-3,4-dihydropyrido[3',2':4,5]thieno[3,2-d]pyrimidin-2-yl)acetic acid]
